From patent US20240132475A1, “SUBSTITUTED PYRAZOLYL COMPOUNDS AS MALT-1 INHIBITORS” (AURIGENE ONCOLOGY LIMITED, priority 2021, published 2024)
pIC50: −log10 of the molar value.

Biological target: T1, MALT-1 (Isoform 1) (Homo sapiens, UniProt Q9UDY8)
T1 construct: using recombinant MALT-1 (Isoform 1, aa-840) generated in house; made in house
T1 sequence (Q9UDY8 1-824): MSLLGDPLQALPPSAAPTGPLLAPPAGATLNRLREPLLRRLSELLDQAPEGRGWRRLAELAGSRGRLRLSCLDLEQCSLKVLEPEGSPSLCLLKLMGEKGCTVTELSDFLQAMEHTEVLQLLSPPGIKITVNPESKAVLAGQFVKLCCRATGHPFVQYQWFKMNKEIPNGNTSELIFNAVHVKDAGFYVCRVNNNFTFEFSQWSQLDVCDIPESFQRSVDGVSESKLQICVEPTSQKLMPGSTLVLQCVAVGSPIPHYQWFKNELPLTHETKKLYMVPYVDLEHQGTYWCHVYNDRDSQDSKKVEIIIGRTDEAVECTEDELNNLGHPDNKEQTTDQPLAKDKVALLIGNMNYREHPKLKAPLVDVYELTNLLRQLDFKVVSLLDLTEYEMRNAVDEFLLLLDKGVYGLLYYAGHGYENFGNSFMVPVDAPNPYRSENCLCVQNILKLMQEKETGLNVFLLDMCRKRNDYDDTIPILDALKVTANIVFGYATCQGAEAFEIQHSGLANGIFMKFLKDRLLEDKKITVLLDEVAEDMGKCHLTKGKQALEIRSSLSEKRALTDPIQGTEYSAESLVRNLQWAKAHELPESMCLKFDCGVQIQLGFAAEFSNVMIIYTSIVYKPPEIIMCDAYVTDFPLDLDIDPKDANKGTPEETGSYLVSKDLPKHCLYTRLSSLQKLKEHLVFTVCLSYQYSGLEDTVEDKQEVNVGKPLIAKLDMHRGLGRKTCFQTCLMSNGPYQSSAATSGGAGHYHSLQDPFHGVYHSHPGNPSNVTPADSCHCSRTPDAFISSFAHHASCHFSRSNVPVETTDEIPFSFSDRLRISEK
Assay: MALT-1 (Isoform 1) enzyme fluorescent biochemical assay
Conditions: for pIC50: dose-response, sigmoidal curve fit, reported as groups A, B, C; for inhibition at 1 µM: test compound 1 μM, recombinant MALT-1 1.5 nM, read-out: Percent Inhibition (1 μM)
Protocol: The potency of compounds to inhibit MALT-1 (Isoform 1) enzyme was tested in a Fluorescent assay using recombinant MALT-1 (Isoform 1, aa-840) generated in house. The assay buffer was 50 mM HEPES (pH 7.5), 100 mM NaCl, 10 mM DTT, 1 mM EDTA, 0.9 M sodium citrate, 0.01% CHAPS. 1.5 nM of MALT-1 enzyme was incubated with test compounds ([…]) (1% DMSO) in the presence of buffer for 30 minutes at 30° C. The protease reaction was initiated by adding […] of AC-LRSR-MAC (Peptide International, USA) substrate and incubated for 240 min. After 240 min incubation, fluorescence emission of the samples at 460 nm was measured at an excitation of 355 nm. The percent inhibition was calculated using the following formula: […]. IC50 values were determined by fitting the dose-response data to sigmoidal curve fitting equation using Graph pad prism software V8.
ND represents Not Determined.

With `N#Cc1cc(NC(=O)c2cnn(Cc3ccc(F)c(Cl)c3)c2C(F)(F)F)cnc1-n1nccn1` [Compound 21, 1-(3-chloro-4-fluorobenzy1)-N-(5-cyano-6-(2H-1,2,3-triazol-2-yl)pyridin-3-yl)-5-(trifluoromethyl)-1H-pyrazole-4-carboxamide] the pIC50 was under 6.00 and the inhibition at 1 µM was 23%.

Work on `COc1ncc(NC(=O)c2cnn(Cc3cccc(F)c3)c2C(F)(F)F)cc1Cl` [Compound 22, N-(5-chloro-6-methoxypyridin-3-yl)-1-(3-fluorobenzyl)-5-(trifluoromethyl)-1H-pyrazole-4-carboxamide] yielded an inhibition at 1 µM of 41%.

`N#Cc1cc(NC(=O)c2cnn(Cc3cccc(F)c3)c2C2CC2)cnc1-n1nccn1` [Compound 23, N-(5-cyano-6-(2H-1,2,3-triazol-2-yl)pyridin-3-yl)-5-cyclopropyl-1-(3-fluorobenzyl)-1H-pyrazole-4-carboxamide] was tested, and the pIC50 was under 6.00 and the inhibition at 1 µM was 45%.

With `O=C(Nc1cnc(-n2nccn2)c(Cl)c1)c1cnn(Cc2cccc(F)c2)c1C(F)(F)F` [Compound 25, N-(5-chloro-6-(2H-1,2,3-triazol-2-yl)pyridin-3-yl)-1-(3-fluorobenzyl)-5-(trifluoromethyl)-1H-pyrazole-4-carboxamide] the pIC50 was over 6.60 and the inhibition at 1 µM was 100%.

`Cc1c(F)cccc1Cn1ncc(C(=O)Nc2cnc(-n3nccn3)c(C#N)c2)c1C(F)(F)F` [Compound 26, N-(5-cyano-6-(2H-1,2,3-triazol-2-yl)pyridin-3-y1)-1-(3-fluoro-2-methylbenzyl)-5-(trifluoromethyl)-1H-pyrazole-4-carboxamide] showed a pIC50 of over 6.60 and an inhibition at 1 µM of 100%.

For `N#Cc1cc(NC(=O)c2cnn(Cc3cccc(F)c3F)c2C(F)(F)F)cnc1-n1nccn1` [Compound 27, N-(5-cyano-6-(2H-1,2,3-triazol-2-yl)pyridin-3-y1)-1-(2,3-difluorobenzyl)-5-(trifluoromethyl)-1H-pyrazole-4-carboxamide], the pIC50 was over 6.60 and the inhibition at 1 µM was 100%.

`Cc1ccc(F)cc1Cn1ncc(C(=O)Nc2cnc(-n3nccn3)c(C#N)c2)c1C(F)(F)F` [Compound 28, N-(5-cyano-6-(2H-1,2,3-triazol-2-yl)pyridin-3-yl)-1-(5-fluoro-2-methylbenzyl)-5-(trifluoromethyl)-1H-pyrazole-4-carboxamide] was tested, and the pIC50 was 6.00 to 6.60 and the inhibition at 1 µM was 84%.

With `N#Cc1cc(NC(=O)c2cnn(Cc3cc(F)ccc3F)c2C(F)(F)F)cnc1-n1nccn1` [Compound 29, N-(5-cyano-6-(2H-1,2,3-triazol-2-yl)pyridin-3-y1)-1-(2,5-difluorobenzyl)-5-(trifluoromethyl)-1H-pyrazole-4-carboxamide] the pIC50 was 6.00 to 6.60 and the inhibition at 1 µM was 70%.

For `Cc1c(F)cccc1Cn1ncc(C(=O)Nc2cnc(-n3nccn3)c(F)c2)c1C(F)(F)F` [Compound 30, 1-(3-fluoro-2-methylbenzyl)-N-(5-fluoro-6-(2H-1,2,3-triazol-2-yl)pyridin-3-y1)-5-(trifluoromethyl)-1H-pyrazole-4-carboxamide], the pIC50 was 6.00 to 6.60 and the inhibition at 1 µM was 97%.

`Cc1c(F)cccc1Cn1ncc(C(=O)Nc2cnc(-n3nccn3)c(C(F)(F)F)c2)c1C(F)(F)F` [Compound 31, N-(6-(2H-1,2,3-triazol-2-y1)-5-(trifluoromethyl)pyridin-3-y1)-1-(3-fluoro-2-methylbenzy1)-5-(trifluoromethyl)-1H-pyrazole-4-carboxamide] gave a pIC50 of over 6.60 and an inhibition at 1 µM of 95%.

In the case of `Cc1c(F)cccc1Cn1ncc(C(=O)Nc2cnc(-n3nccn3)c(Cl)c2)c1C(F)(F)F` [Compound 32, N-(5-chloro-6-(2H-1,2,3-triazol-2-y1)pyridin-3-y1)-1-(3-fluoro-2-methylbenzyl)-5-(trifluoromethyl)-1H-pyrazole-4-carboxamide], the pIC50 was over 6.60 and the inhibition at 1 µM was 99%.

`N#Cc1cc(NC(=O)c2cnn(Cc3cccc(F)c3C(F)(F)F)c2C(F)(F)F)cnc1-n1nccn1` [Compound 33, N-(5-cyano-6-(2H-1,2,3-triazol-2-yl)pyridin-3-y1)-1-(3-fluoro-2-(trifluoromethyl)benzy1)-5-(trifluoromethyl)-1H-pyrazole-4-carboxamide] was tested, and the pIC50 was over 6.60 and the inhibition at 1 µM was 99%.

With `O=C(Nc1cnc(-n2nccn2)c(Cl)c1)c1cnn(Cc2cccc(F)c2Cl)c1C(F)(F)F` [Compound 34, 1-(2-chloro-3-fluorobenzy1)-N-(5-chloro-6-(2H-1,2,3-triazol-2-yl)pyridin-3-yl)-5-(trifluoromethyl)-1H-pyrazole-4-carboxamide] the pIC50 was over 6.60 and the inhibition at 1 µM was 99%.

Work on `COc1cc(F)cc(Cn2ncc(C(=O)Nc3cnc(-n4nccn4)c(C#N)c3)c2C(F)(F)F)c1` [Compound 35, N-(5-cyano-6-(2H-1,2,3-triazol-2-yl)pyridin-3-yl)-1-(3-fluoro-5-methoxybenzyl)-5-(trifluoromethyl)-1H-pyrazole-4-carboxamide] yielded a pIC50 of under 6.00 and an inhibition at 1 µM of 42%.

Compound `N#Cc1cc(NC(=O)c2cnn(Cc3cc(F)cc(F)c3)c2C(F)(F)F)cnc1-n1nccn1` [Compound 36, N-(5-cyano-6-(2H-1,2,3-triazol-2-y1)pyridin-3-yl)-1-(3,5-difluorobenzyl)-5-(trifluoromethyl)-1H-pyrazole-4-carboxamide] has a pIC50 of 6.00 to 6.60 and an inhibition at 1 µM of 86%.

In the case of `COc1ncc(NC(=O)c2cnn(Cc3cccc(F)c3Cl)c2C(F)(F)F)cc1Cl` [Compound 37, 1-(2-chloro-3-fluorobenzyl)-N-(5-chloro-6-methoxypyridin-3-y1)-5-(trifluoromethyl)-1H-pyrazole-4-carboxamide], the pIC50 was 6.00 to 6.60 and the inhibition at 1 µM was 81%.

Work on `N#Cc1cc(NC(=O)c2cnn(Cc3cccc(F)c3Br)c2C(F)(F)F)cnc1-n1nccn1` [Compound 38, 1-(2-bromo-3-fluorobenzy1)-N-(5-cyano-6-(2H-1,2,3-triazol-2-yl)pyridin-3-yl)-5-(trifluoromethyl)-1H-pyrazole-4-carboxamide] yielded a pIC50 of over 6.60 and an inhibition at 1 µM of 100%.

In the case of `COc1c(F)cccc1Cn1ncc(C(=O)Nc2cnc(-n3nccn3)c(C#N)c2)c1C(F)(F)F` [Compound 39, N-(5-cyano-6-(2H-1,2,3-triazol-2-yl)pyridin-3-y1)-1-(3-fluoro-2-methoxybenzyl)-5-(trifluoromethyl)-1H-pyrazole-4-carboxamide], the pIC50 was over 6.60 and the inhibition at 1 µM was 100%.

Work on `O=C(Nc1ccnc(C(F)(F)F)c1)c1cnn(Cc2cccc(F)c2Cl)c1C(F)(F)F` [Compound 40, 1-(2-chloro-3-fluorobenzyl)-5-(trifluoromethyl)-N-(2-(trifluoromethyl)pyridin-4-y1)-1H-pyrazole-4-carboxamide] yielded a pIC50 of 6.00 to 6.60 and an inhibition at 1 µM of 75%.

In the case of `O=C(Nc1cncnc1)c1cnn(Cc2cccc(F)c2Cl)c1C(F)(F)F` [Compound 41, 1-(2-chloro-3-fluorobenzyl)-N-(pyrimidin-5-y1)-5-(trifluoromethyl)-1H-pyrazole-4-carboxamide], the pIC50 was under 6.00 and the inhibition at 1 µM was 14%.

In the case of `O=C(Nc1cncc(C(F)(F)F)c1)c1cnn(Cc2cccc(F)c2Cl)c1C(F)(F)F` [Compound 42, 1-(2-chloro-3-fluorobenzyl)-5-(trifluoromethyl)-N-(5-(trifluoromethyl)pyridin-3-yl)-1H-pyrazole-4-carboxamide], the pIC50 was 6.00 to 6.60 and the inhibition at 1 µM was 71%.

In the case of `O=C(Nc1cc(C(F)(F)F)cnn1)c1cnn(Cc2cccc(F)c2Cl)c1C(F)(F)F` [Compound 43, 1-(2-chloro-3-fluorobenzyl)-5-(trifluoromethyl)-N-(5-(trifluoromethyl)pyridazin-3-y1)-1H-pyrazole-4-carboxamide], the pIC50 was under 6.00 and the inhibition at 1 µM was 13%.

Work on `O=C(Nc1cc(C(F)(F)F)ncn1)c1cnn(Cc2cccc(F)c2Cl)c1C(F)(F)F` [Compound 44, 1-(2-chloro-3-fluorobenzyl)-5-(trifluoromethyl)-N-(6-(trifluoromethyl)pyrimidin-4-yl)-1H-pyrazole-4-carboxamide] yielded a pIC50 of under 6.00 and an inhibition at 1 µM of 38%.

`O=C(Nc1cnc(C(=O)N2CCCC2)c(Cl)c1)c1cnn(Cc2cccc(F)c2Cl)c1C(F)(F)F` [Compound 45, 1-(2-chloro-3-fluorobenzyl)-N-(5-chloro-6-(pyrrolidine-1-carbonyl)pyridin-3-yl)-5-(trifluoromethyl)-1H-pyrazole-4-carboxamide] was tested, and the pIC50 was under 6.00 and the inhibition at 1 µM was 40%.
